According to patent US8063071B2 (GlaxoSmithKline, LLC, priority 2007, dated 2011):
Where a name gives a salt, the structure may show the parent alone.

Target: T1, Recombinant human IKKβ (residues 1-737) (Homo sapiens, UniProt O14920)
T1 construct: Recombinant human IKKβ (residues 1-737); GST (C); made in house
T1 sequence (O14920 1-737): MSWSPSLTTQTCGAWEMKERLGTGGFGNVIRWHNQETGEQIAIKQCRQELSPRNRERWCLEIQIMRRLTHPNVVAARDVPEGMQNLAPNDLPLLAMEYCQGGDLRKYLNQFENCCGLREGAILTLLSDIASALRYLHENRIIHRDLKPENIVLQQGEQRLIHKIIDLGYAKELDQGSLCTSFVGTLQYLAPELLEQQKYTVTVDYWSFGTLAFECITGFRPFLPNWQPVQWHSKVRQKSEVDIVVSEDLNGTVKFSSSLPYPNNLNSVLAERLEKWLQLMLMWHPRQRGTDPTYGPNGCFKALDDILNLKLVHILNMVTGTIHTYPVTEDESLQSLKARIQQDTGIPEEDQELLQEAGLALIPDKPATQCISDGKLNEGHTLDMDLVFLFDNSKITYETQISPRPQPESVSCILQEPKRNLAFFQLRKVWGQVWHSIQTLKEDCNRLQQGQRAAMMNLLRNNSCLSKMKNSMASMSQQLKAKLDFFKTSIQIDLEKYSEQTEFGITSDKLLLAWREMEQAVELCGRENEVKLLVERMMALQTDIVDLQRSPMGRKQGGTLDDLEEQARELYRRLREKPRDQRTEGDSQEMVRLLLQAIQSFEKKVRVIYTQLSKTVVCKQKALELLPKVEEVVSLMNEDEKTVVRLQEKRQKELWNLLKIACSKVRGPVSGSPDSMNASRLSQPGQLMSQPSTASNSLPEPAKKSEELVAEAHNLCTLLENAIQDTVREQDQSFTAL
Assay: IKK2 assay (TR-FRET)
Type: biochemical
Settings: ATP 1 μM final, read-out: pIC50 against IKK2 (converted)
Protocol: Recombinant human IKKβ (residues 1-737) was expressed in baculovirus as a C-terminal GST-tagged fusion protein, and its activity was assessed using a time-resolved fluorescence resonance energy transfer (TR-FRET) assay. Briefly, IKK2 (0.5 nM-5 nM final) diluted in assay buffer (50 mM HEPES, 10 mM MgCl2, 1 mM CHAPS pH 7.4 with 1 mM DTT and 0.01% w/v BSA) was added to wells containing various concentrations of compound or DMSO vehicle (1.7% final). The reaction was initiated by the addition of GST-IB substrate (25 nM final)/ATP (1 μM final), in a total volume of 6 μl. The reaction was incubated for 15 minutes at room temperature, then terminated by the addition of 3 μl of detection reagent in buffer containing 50 mM EDTA (100 mM HEPES pH 7.4, 150 mM NaCl, 50 mM EDTA and 0.01% w/v BSA) containing antiphosphoserine-IB-32/36 monoclonal antibody 12C2 (Cell Signalling Technology, Beverly Mass., USA) labelled with W-1024 europium chelate (Wallac OY, Turku, Finland), and an APC-labelled anti-GST antibody (Prozyme, San Leandro, Calif., USA) was added and the reaction was further incubated for 60 minutes at room temperature. The degree of phosphorylation of GST-IB was measured using a BMG Rubystar plate reader (BMG Labtech, Aylesbury, UK) as a ratio of specific 665 nm energy transfer signal to reference europium 620 nm signal.

SMILES	IC50
CCS(=O)(=O)N1CCC(c2c[nH]c3c(C(N)=O)cc(-c4ccc(OC)c(CNC)c4)cc23)CC1 [Example 266, 3-[1-(ethylsulfonyl)-4-piperidinyl]-5-[3-[(methylamino)methyl]-4-(methyloxy)phenyl]-1H-indole-7-carboxamide trifluoroacetate]	≤ 10 µM
CCS(=O)(=O)N1CCC(c2c[nH]c3c(C(N)=O)cc(-c4ccc(OC)c(CNCC(C)(C)C)c4)cc23)CC1 [Example 267, 5-[3-{[(2,2-dimethylpropyl)amino]methyl}-4-(methyloxy)phenyl]-3-[1-(ethylsulfonyl)-4-piperidinyl]-1H-indole-7-carboxamide trifluoroacetate]	≤ 10 µM
CCS(=O)(=O)N1CCC(c2c[nH]c3c(C(N)=O)cc(-c4cnn(CCN(C)CCO)c4)cc23)CC1 [Example 268, 3-[1-(ethylsulfonyl)-4-piperidinyl]-5-(1-{2-[(2-hydroxyethyl)(methyl)amino]ethyl}-1H-pyrazol-4-yl)-1H-indole-7-carboxamide]	≤ 10 µM
CCS(=O)(=O)N1CCC(c2c[nH]c3c(C(N)=O)cc(-c4cccc(C5CCCCN5)c4)cc23)CC1 (stereo not drawn) [Example 279, 3-[1-(ethylsulfonyl)-4-piperidinyl]-5-[3-(2-piperidinyl)phenyl]-1H-indole-7-carboxamide trifluoroacetate]	≤ 10 µM
CCNC(C)c1cccc(-c2cc(C(N)=O)c3[nH]cc(C4CCN(S(=O)(=O)CC)CC4)c3c2)c1 (stereo not drawn) [Example 280, 5-{3-[1-(ethylamino)ethyl]phenyl}-3-[1-(ethylsulfonyl)-4-piperidinyl]-1H-indole-7-carboxamide trifluoroacetate]	≤ 10 µM
CCS(=O)(=O)N1CCC(c2c[nH]c3c(C(N)=O)cc(-c4cccc(C(C)N(C)C)c4)cc23)CC1 (stereo not drawn) [Example 281, 5-{3-[1-(dimethylamino)ethyl]phenyl}-3-[1-(ethylsulfonyl)-4-piperidinyl]-1H-indole-7-carboxamide trifluoroacetate]	≤ 10 µM
CCS(=O)(=O)N1CCC(c2c[nH]c3c(C(N)=O)cc(-c4cc(F)cc(CN5CCCC5)c4)cc23)CC1 [Example 289, 3-[1-(ethylsulfonyl)-4-piperidinyl]-5-[3-fluoro-5-(1-pyrrolidinylmethyl)phenyl]-1H-indole-7-carboxamide trifluoroacetate]	≤ 10 µM
CCS(=O)(=O)N1CCC(c2c[nH]c3c(C(N)=O)cc(-c4cc(F)cc(CN5CCOCC5)c4)cc23)CC1 [Example 290, 3-[1-(ethylsulfonyl)-4-piperidinyl]-5-[3-fluoro-5-(4-morpholinylmethyl)phenyl]-1H-indole-7-carboxamide trifluoroacetate]	≤ 10 µM
CCS(=O)(=O)N1CCC(c2c[nH]c3c(C(N)=O)cc(-c4cc(F)cc(CN5CCCCC5)c4)cc23)CC1 [Example 291, 3-[1-(ethylsulfonyl)-4-piperidinyl]-5-[3-fluoro-5-(1-piperidinylmethyl)phenyl]-1H-indole-7-carboxamide trifluoroacetate]	≤ 10 µM
CCS(=O)(=O)N1CCC(c2c[nH]c3c(C(N)=O)cc(-c4csc(CN5CCCCC5)n4)cc23)CC1 [Example 354, 3-[1-(ethylsulfonyl)-4-piperidinyl]-5-[2-(1-piperidinylmethyl)-1,3-thiazol-4-yl]-1H-indole-7-carboxamide]	≤ 10 µM
CCS(=O)(=O)N1CCC(c2c[nH]c3c(C(N)=O)cc(-c4cccc(CNS(=O)(=O)c5csc6ccccc56)c4)cc23)CC1 [Example 382, 5-(3-{[(1-benzothien-3-ylsulfonyl)amino]methyl}phenyl)-3-[1-(ethylsulfonyl)-4-piperidinyl]-1H-indole-7-carboxamide]	≤ 10 µM
CCS(=O)(=O)N1CCC(c2c[nH]c3c(C(N)=O)cc(-c4cccc(CNS(=O)(=O)c5ccc(F)c(F)c5)c4)cc23)CC1 [Example 384, 5-[3-({[(3,4-difluorophenyl)sulfonyl]amino}methyl)phenyl]-3-[1-(ethylsulfonyl)-4-piperidinyl]-1H-indole-7-carboxamide]	≤ 10 µM
CCS(=O)(=O)N1CCC(c2c[nH]c3c(C(N)=O)cc(-c4ccc(NS(=O)(=O)C5CCCC5)cc4)cc23)CC1 [Example 387, 5-{4-[(cyclopentylsulfonyl)amino]phenyl}-3-[1-(ethylsulfonyl)-4-piperidinyl]-1H-indole-7-carboxamide trifluoroacetate]	≤ 10 µM
CC(C)S(=O)(=O)N1CCC(c2c[nH]c3c(C(N)=O)cc(-c4csc(CN(C)CC(N)=O)c4)cc23)CC1 [Example 398, 5-(5-{[(2-amino-2-oxoethyl)(methyl)amino]methyl}-3-thienyl)-3-{1-[(1-methylethyl)sulfonyl]-4-piperidinyl}-1H-indole-7-carboxamide]	≤ 10 µM

Other lines, results leading:

IC50	SMILES
> 10 µM	CCNCc1cc(CNCC)cc(-c2cc(C(N)=O)c3[nH]cc(C4CCN(S(=O)(=O)CC)CC4)c3c2)c1 [Example 277, 5-{3,5-bis[(ethylamino)methyl]phenyl}-3-[1-(ethylsulfonyl)-4-piperidinyl]-1H-indole-7-carboxamide trifluoroacetate]
> 10 µM	CCS(=O)(=O)N1CCC(c2c[nH]c3c(C(N)=O)cc(-c4cc(CN(C)C)cc(CN(C)C)c4)cc23)CC1 [Example 278, 5-{3,5-bis[(dimethylamino)methyl]phenyl}-3-[1-(ethylsulfonyl)-4-piperidinyl]-1H-indole-7-carboxamide trifluoroacetate]
≤ 10 µM	CCS(=O)(=O)N1CCC(c2c[nH]c3c(C(N)=O)cc(-c4cc(F)cc(CNC)c4)cc23)CC1 [Example 282, 3-[1-(ethylsulfonyl)-4-piperidinyl]-5-{3-fluoro-5-[(methylamino)methyl]phenyl}-1H-indole-7-carboxamide trifluoroacetate]
≤ 10 µM	CCNCc1cc(F)cc(-c2cc(C(N)=O)c3[nH]cc(C4CCN(S(=O)(=O)CC)CC4)c3c2)c1 [Example 283, 5-{3-[(ethylamino)methyl]-5-fluorophenyl}-3-[1-(ethylsulfonyl)-4-piperidinyl]-1H-indole-7-carboxamide trifluoroacetate]
≤ 10 µM	CCCNCc1cc(F)cc(-c2cc(C(N)=O)c3[nH]cc(C4CCN(S(=O)(=O)CC)CC4)c3c2)c1 [Example 284, 3-[1-(ethylsulfonyl)-4-piperidinyl]-5-{3-fluoro-5-[(propylamino)methyl]phenyl}-1H-indole-7-carboxamide trifluoroacetate]
≤ 10 µM	CCS(=O)(=O)N1CCC(c2c[nH]c3c(C(N)=O)cc(-c4cc(F)cc(CNC(C)C)c4)cc23)CC1 [Example 285, 3-[1-(ethylsulfonyl)-4-piperidinyl]-5-(3-fluoro-5-{[(1-methylethyl)amino]methyl}phenyl)-1H-indole-7-carboxamide trifluoroacetate]
≤ 10 µM	CCS(=O)(=O)N1CCC(c2c[nH]c3c(C(N)=O)cc(-c4cc(F)cc(CNCC(C)C)c4)cc23)CC1 [Example 286, 3-[1-(ethylsulfonyl)-4-piperidinyl]-5-(3-fluoro-5-{[(2-methylpropyl)amino]methyl}phenyl)-1H-indole-7-carboxamide trifluoroacetate]
≤ 10 µM	CCS(=O)(=O)N1CCC(c2c[nH]c3c(C(N)=O)cc(-c4cc(F)cc(CNC5CCC5)c4)cc23)CC1 [Example 287, 5-{3-[(cyclobutylamino)methyl]-5-fluorophenyl}-3-[1-(ethylsulfonyl)-4-piperidinyl]-1H-indole-7-carboxamide trifluoroacetate]
≤ 10 µM	CCS(=O)(=O)N1CCC(c2c[nH]c3c(C(N)=O)cc(-c4cc(F)cc(CN(C)C)c4)cc23)CC1 [Example 288, 5-{3-[(dimethylamino)methyl]-5-fluorophenyl}-3-[1-(ethylsulfonyl)-4-piperidinyl]-1H-indole-7-carboxamide trifluoroacetate]
≤ 10 µM	CCS(=O)(=O)N1CCC(c2c[nH]c3c(C(N)=O)cc(-c4cccc(CNOC)c4)cc23)CC1 [Example 391, 3-[1-(ethylsulfonyl)-4-piperidinyl]-5-(3-{[(methyloxy)amino]methyl}phenyl)-1H-indole-7-carboxamide]
